Measured values taken from patent US9655965B2, “Radiosensitizer compounds for use in combination with radiation” (priority 2013, dated 2017).
“Also recorded” adds a separate entry of the source.

Key:
[1] = test system: human normal cells (GM05757); assay: In vitro toxicity in human normal cells, 72-hr treatment, MTT assay; format: cell-based; settings: GM05757, 72-hr treatment, without ionizing radiation; for toxicity toward human normal cells: 0-50 μM cisplatin, 0-200 μM compounds
From the text: (§1) Dibromo-diamino-benzene (Dibromo-phenylenediamine, Compound B) was obtained from TCI-America. Diiodo-diaminobenzene (Compound C) were synthesized, purified and crystallized in our laboratory, and the structures and purity were examined by NMR and mass spectrometry. MEM and fetal bovine serum (FBS), penicillin G and streptomycin were obtained from Hyclone Laboratories (UT, USA). Stock solution of cisplatin was freshly prepared in ultrapure water or saline, and stock solutions of Compounds A, B, C, D were prepared in pure ethanol, where the final concentration of ethanol was ≦1% when treated to cells.
(§2) A human skin diploid fibroblast (GM05757 cell line) was obtained from the Coriell Cell Repository directly. Fetal bovine serum (FBS) was obtained from Hyclone Laboratories (UT, USA). The GM05757 normal cells were cultivated with MEM (Hyclone) supplemented with 10% FBS, 100 units/mL penicillin G and 100 μg/mL streptomycin (Hyclone). The cells were maintained at 37° C. in a humidified atmosphere containing 5% CO2.
(§3) The radiosensitizing effects of RSCs on cell viability were determined by the 3-[4,5-dimethylthiazol-2-yl]-2,5-diphenyl tetrazoliumbromide (MTT) assay. Cells were cultured in 96-well plates (5×10^3 cells/well) for 24 h. The culture medium was replaced by fresh culture medium and incubated for 72 h with varying drug concentrations. The MTT assay of cell viability was then conducted. Briefly, 100 μl new medium without phenol red containing 1.2 mM MTT (sigma) (i.e., adding 10 μl 12 mM MTT stock solution in PBS) were added to each well and incubated for 4 h. The medium was then removed, and the formazan crystals solubilized by 100 μL/well DMSO (or alternatively by 100 μl/well SDS and incubated for another 4 h). The surviving fraction was determined by measuring the absorbance at 540 nm (570 nm for SDS solubilization) using a Multiskan Spectrum UV/Vis microplate reader (Thermo Scientific), which is directly proportional to the number of viable cells.

[2] = test system: cisplatin-resistant human ovarian cancer (HTB-161) cells; assay: In vitro radiosensitizing effect, MTT assay 6 days after X-ray, HTB-161; format: cell-based; settings: MTT at 6 days
From the text: as §1, with “TCI—America.” for “TCI-America.”, “cells. […]” for “cells.”
(§4) The radiosensitizing effects of RSCs on cell viability were determined by the 3-[4,5-dimethylthiazol-2-yl]-2,5-diphenyl tetrazoliumbromide (MTT) assay. […] The surviving fraction was determined by measuring the absorbance at 540 nm (570 nm for SDS solubilization) using a Multiskan Spectrum UV/Vis microplate reader (Thermo Scientific), which is directly proportional to the number of viable cells.

[3] = test system: human cervical cancer (HeLa) cells; assay: In vitro radiosensitizing effect, MTT assay 6 days after X-ray, HeLa; format: cell-based; settings: 12-hr treatment, MTT at 6 days
From the text: as §1, with “TCI—America.” for “TCI-America.”
(§5) A human skin diploid fibroblast (GM05757 cell line) was obtained from the Coriell Cell Repository directly, while the human cervical cancer cell line (HeLa, ATCC#: CCL-2; or ME-180), human ovarian cancer cell line (NIH:OVCAR-3, ATCC#: HTB-161) and human lung cancer cell line (A549, ATCC#: CCL-185™), together with RPMI 1640, F-12K, McCoy's 5 A and L-15 culture media, were obtained from the American Type Culture Collection (ATCC) directly. Fetal bovine serum (FBS) was obtained from Hyclone Laboratories (UT, USA). The GM05757 normal cells and HeLa cells were cultivated with MEM (Hyclone) supplemented with 10% FBS, 100 units/mL penicillin G and 100 μg/mL streptomycin (Hyclone). The complete growth media for ME-180, NIH:OVCAR-3, A549 and MDA-MB-231 cells were the ATCC-formulated McCoy's 5 A Medium supplemented with 10% FBS, RPMI 1640 medium with 20%, F-12K medium with 10% FBS, and L-15 Medium (Leibovitz) with 10% FBS, respectively. The cells were maintained at 37° C. in a humidified atmosphere containing 5% CO2.
as §4, with “assay. Cells were cultured in 96-well plates (5×10^3 cells/well) for 24 h.” for “assay.”

[4] = test system: various human cancer cells; assay: In vitro radiosensitizing effects in various human cancer cells (FIG. 14-21); format: cell-based; settings: 12 hr treatment, then various doses of 225 keV X-ray
From the text: as §1, with “TCI—America.” for “TCI-America.”
as §5
as §3, with “12” for “72”, “concentrations. The cells were then irradiated by 225 kV X-ray (PRECISION X-RAD IR 225) at a dose rate of 2 Gy/min with various X-ray doses. After irradiation, the cells were incubated for 6 days.” for “concentrations.”

[5] = test system: human normal cells (GM05757); assay: In vitro radiation-induced toxicity in human normal cells, MTT assay 12 days after X-ray; format: cell-based; settings: GM05757, 12-hr treatment, then 0-10 Gy 225 keV X-ray, MTT at 12 days
From the text: as §1, §2
as §3, with “12” for “72”, “concentrations. The cells were then irradiated by 225 kV X-ray (PRECISION X-RAD IR 225) at a dose rate of 2 Gy/min with various X-ray doses. After irradiation, the cells were incubated for 12 days.” for “concentrations.”, “The medium was then removed, and the formazan crystals solubilized by 100 μL/well DMSO (or alternatively by 100 μl/well SDS and incubated for another 4 h).” left out

[6] = [Lu, 2010]; cited from earlier work
[7] = test system: human cervical cancer (ME-180) cells; assay: In vitro radiosensitizing effect, MTT assay 6 days after X-ray, ME-180; format: cell-based
From the text: as §1, with “TCI—America.” for “TCI-America.”
as §5
as §3, with “12” for “72”, “concentrations. The cells were then irradiated by 225 kV X-ray (PRECISION X-RAD IR 225) at a dose rate of 2 Gy/min with various X-ray doses. After irradiation, the cells were incubated for 6 days.” for “concentrations.”

mice = settings: literature; cited from earlier work

| Compound | toxicity toward human normal cells [1] | enhancement of radiosensitivity of cancer cells to X-ray ([3]; 0-10 Gy 225 keV X-ray) | killing of cancer cells in combination with radiation [4] | radiation toxicity in human normal cells [5] | further results |
| --- | --- | --- | --- | --- | --- |
| Nc1cc(Cl)c(Cl)cc1N [Compound A, 4,5-dichloro-1,2-phenylenediamine] | essentially no toxicity; also recorded: little toxicity up to 200 μM | significant enhancement in the radiosensitivity | enhanced the killing of cancer cells in a radiation dose dependent manner and in synergy with radiation; also recorded: enhances the effectiveness of ionizing radiation to kill tumor cells | no radiation toxicity | enhancement of radiosensitivity of cisplatin-resistant cancer cells to X-ray ([2]; HTB-161, 12-hr treatment, 0-10 Gy 225 keV X-ray): significant enhancement in the radiosensitivity |
| Nc1cc(I)c(I)cc1N [Compound C, 4,5-diiodo-1,2-phenylenediamine] | essentially no toxicity; also recorded: little toxicity up to 200 μM |  | enhanced the killing of cancer cells in a radiation dose dependent manner and in synergy with radiation; also recorded: enhances the effectiveness of ionizing radiation to kill tumor cells |  | enhancement of radiosensitivity of cancer cells to X-ray ([3]; 0 and 20 Gy 225 keV X-ray): significant enhancement in the radiosensitivity |
| O=c1[nH]c(=O)n([C@H]2C[C@H](O)[C@@H](CO)O2)cc1I [IdU, iododeoxyuridine] |  |  |  |  | DET reaction with epre− among halopyrimidines [6]: strongest DET reaction among the halopyrimidines |
| bromo-(1,2-)diamino-benzene [Compound D] |  | significant enhancement in the radiosensitivity | enhanced the killing of cancer cells in a radiation dose dependent manner and in synergy with radiation; also recorded: enhances the effectiveness of ionizing radiation to kill tumor cells |  | enhancement of radiosensitivity of cancer cells to X-ray ([7]; ME-180, 12-hr treatment, 0-10 Gy 225 keV X-ray, MTT at 6 days): significant enhancement in the radiosensitivity; killing of cancer cells ([7]; ME-180, 50 Gy x-ray with about 100 μM compound, about 20% survived without any RSC): early all cancer cells were killed; enhancement of radiosensitivity of cisplatin-resistant cancer cells to X-ray ([2]; HTB-161, 0-7.5 Gy 225 keV X-ray): significant enhancement in the radiosensitivity |
| cis-Pt(NH3)2Cl2 [cisplatin, reference compound] | highly toxic; also recorded: severe toxicity even at low concentrations of ≦30 μM |  |  | essentially no radiation toxicity | LD50 (mice): 13.5 mg/kg; IC50 ([1]; read-out: IC50 (cell survival rate 50% with respect to untreated cells)): ~10 µM |
